One may read the inhibition as the percentage by which the read-out fell short of the control. High values mean a response far below the control, low ones a response near the control. In general, Ki refers to the equilibrium dissociation constant of an inhibitor or competing ligand from its target. The low end stands for a stronger hold on the target, the high end for a looser hold on the target. By EC50 is commonly meant the concentration at which the effect is half-maximal. Low values mean higher potency in that assay, high ones lower potency in that assay. As usually defined, the Vd is a proportionality between amount in the body and measured concentration, not a real space. In general, clearance refers to the rate of elimination divided by the concentration. A higher clearance goes with a high capacity for elimination. What is called Cmax is the highest concentration seen after dosing. As usually defined, the bioavailability is the share of a dose that reaches the circulation, judged against a reference dose that is usually intravenous. Read a low bioavailability as little systemic uptake. The half-life is the time needed for the level to fall by half in the phase considered. Low readings indicate fast loss, high ones slow loss.

The record followed here is ChEMBL document CHEMBL1145755, “Design, synthesis and biological activity of novel dimethyl-[2-[6-substituted-indol-1-yl]-ethyl]-amine as potent, selective, and orally-bioavailable 5-HT(1D) agonists” (Bioorg Med Chem Lett, 2003).

Data set [1] has as its target T1, 5-hydroxytryptamine receptor 1D (Homo sapiens, UniProt P28221). The data set can be described thus: Inhibition of [3H]5-HT binding to human 5-hydroxytryptamine 1D receptor expressed in CHO cells at 1 uM. The data set is classed as cell-based.
Data set [2] has as its target T1, 5-hydroxytryptamine receptor 1D. Description: Displacement of [3H]5-HT from human 5-hydroxytryptamine 1D receptor expressed in Chinese hamster ovary cells (CHO cells). The data set is classed as cell-based.
Data set [3] shares this target. Description: Selectivity of compound to human 5-HT1D receptor to that of human 5-HT1B receptor.
Data set [4] concerns the target T2, 5-hydroxytryptamine receptor 1A (Homo sapiens) (UniProt P08908).
T2 sequence (whole entry): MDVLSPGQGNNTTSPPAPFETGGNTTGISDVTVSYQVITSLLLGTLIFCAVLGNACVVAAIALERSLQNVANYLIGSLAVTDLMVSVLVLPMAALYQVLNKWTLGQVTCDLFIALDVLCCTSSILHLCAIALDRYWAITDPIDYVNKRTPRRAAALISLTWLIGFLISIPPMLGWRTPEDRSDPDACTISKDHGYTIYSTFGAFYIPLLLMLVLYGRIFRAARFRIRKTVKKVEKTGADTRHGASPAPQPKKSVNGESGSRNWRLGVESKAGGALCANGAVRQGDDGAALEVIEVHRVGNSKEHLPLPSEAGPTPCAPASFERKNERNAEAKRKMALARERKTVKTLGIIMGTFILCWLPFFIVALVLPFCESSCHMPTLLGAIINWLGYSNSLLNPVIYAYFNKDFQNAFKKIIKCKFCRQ
The data set can be described thus: Inhibition of binding towards 5-hydroxytryptamine 1A receptor at 100 nM concentration.

The target in data set [5] is T1, 5-hydroxytryptamine receptor 1D. The data set can be described thus: Ability to inhibit forskolin-stimulated adenylate cyclase activity in Chinese hamster ovary (CHO) stable cell lines expressing human 5-hydroxytryptamine 1D receptor. The data set is classed as functional.
For data set [6], the target named is 5-hydroxytryptamine receptor 1B (Homo sapiens) (UniProt P28222). Description: Inhibition of binding towards 5-hydroxytryptamine 1B receptor at 100 nM concentration.
Sequence of 5-hydroxytryptamine receptor 1B (Homo sapiens) (P28222 whole entry): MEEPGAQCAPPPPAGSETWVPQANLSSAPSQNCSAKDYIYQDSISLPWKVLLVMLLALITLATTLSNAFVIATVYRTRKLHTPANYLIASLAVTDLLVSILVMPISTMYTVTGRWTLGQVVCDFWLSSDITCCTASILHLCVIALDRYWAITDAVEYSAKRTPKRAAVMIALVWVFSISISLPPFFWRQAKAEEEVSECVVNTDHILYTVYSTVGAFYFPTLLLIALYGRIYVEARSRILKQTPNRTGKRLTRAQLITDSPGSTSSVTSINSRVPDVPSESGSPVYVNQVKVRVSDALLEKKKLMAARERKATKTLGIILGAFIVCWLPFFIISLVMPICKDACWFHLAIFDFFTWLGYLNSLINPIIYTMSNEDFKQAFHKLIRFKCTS
The target of data set [7] is 5-hydroxytryptamine receptor 2A (Homo sapiens) (UniProt P28223). The data set can be described thus: Inhibition of binding towards 5-hydroxytryptamine 2A receptor at 100 nM concentration.
Sequence of 5-hydroxytryptamine receptor 2A (Homo sapiens) (P28223 whole entry): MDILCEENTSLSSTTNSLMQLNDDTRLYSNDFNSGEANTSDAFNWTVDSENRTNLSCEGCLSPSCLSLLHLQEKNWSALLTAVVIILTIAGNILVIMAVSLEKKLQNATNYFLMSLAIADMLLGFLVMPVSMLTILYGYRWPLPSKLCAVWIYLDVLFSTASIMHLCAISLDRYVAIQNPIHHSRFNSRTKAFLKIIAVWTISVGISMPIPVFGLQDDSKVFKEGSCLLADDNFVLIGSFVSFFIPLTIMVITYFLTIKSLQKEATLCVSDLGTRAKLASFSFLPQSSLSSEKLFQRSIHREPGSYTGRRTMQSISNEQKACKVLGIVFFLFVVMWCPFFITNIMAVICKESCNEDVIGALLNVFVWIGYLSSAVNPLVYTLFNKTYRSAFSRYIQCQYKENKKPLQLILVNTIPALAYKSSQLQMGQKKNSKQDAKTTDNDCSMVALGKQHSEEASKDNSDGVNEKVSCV
The target in data set [8] is T1, 5-hydroxytryptamine receptor 1D. Description: Inhibition of binding towards 5-hydroxytryptamine 1D receptor at 100 nM concentration.
Data set [9] in a line: Compound distribution in rat tissues was determined. The data set is classed as ADME, organism-based. Particulars: in vivo.
Data set [10] can be described thus: Plasma clearance was determined in rat. The data set is classed as ADME, organism-based.
In data set [11] the target is 5-hydroxytryptamine receptor 7 (Homo sapiens) (UniProt P34969). Description: Inhibition of binding towards 5-hydroxytryptamine 7 receptor at 100 nM concentration.
Sequence of 5-hydroxytryptamine receptor 7 (Homo sapiens) (P34969 whole entry): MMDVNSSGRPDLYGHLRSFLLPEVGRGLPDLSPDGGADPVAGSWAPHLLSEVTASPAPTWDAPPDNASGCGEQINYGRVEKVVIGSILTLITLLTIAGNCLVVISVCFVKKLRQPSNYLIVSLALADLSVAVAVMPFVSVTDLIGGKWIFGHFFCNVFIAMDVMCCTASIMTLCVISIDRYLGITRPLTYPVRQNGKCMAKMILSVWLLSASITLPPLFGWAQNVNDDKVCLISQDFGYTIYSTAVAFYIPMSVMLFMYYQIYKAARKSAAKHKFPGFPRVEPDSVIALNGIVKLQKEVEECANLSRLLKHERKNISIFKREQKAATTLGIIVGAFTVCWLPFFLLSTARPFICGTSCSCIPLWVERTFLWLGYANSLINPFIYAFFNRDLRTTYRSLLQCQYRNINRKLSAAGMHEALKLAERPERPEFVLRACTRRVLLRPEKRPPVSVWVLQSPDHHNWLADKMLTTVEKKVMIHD
A short description of data set [12]: Cmax in rat. It is filed as ADME, organism-based. The settings on record: in vivo.
Data set [13] is described as follows: Oral bioavailability in rat. It is filed as ADME, organism-based. The settings on record: in vivo.
Data set [14] has as its target T3, 5-hydroxytryptamine receptor 2C (Homo sapiens) (UniProt P28335).
T3 sequence (whole entry): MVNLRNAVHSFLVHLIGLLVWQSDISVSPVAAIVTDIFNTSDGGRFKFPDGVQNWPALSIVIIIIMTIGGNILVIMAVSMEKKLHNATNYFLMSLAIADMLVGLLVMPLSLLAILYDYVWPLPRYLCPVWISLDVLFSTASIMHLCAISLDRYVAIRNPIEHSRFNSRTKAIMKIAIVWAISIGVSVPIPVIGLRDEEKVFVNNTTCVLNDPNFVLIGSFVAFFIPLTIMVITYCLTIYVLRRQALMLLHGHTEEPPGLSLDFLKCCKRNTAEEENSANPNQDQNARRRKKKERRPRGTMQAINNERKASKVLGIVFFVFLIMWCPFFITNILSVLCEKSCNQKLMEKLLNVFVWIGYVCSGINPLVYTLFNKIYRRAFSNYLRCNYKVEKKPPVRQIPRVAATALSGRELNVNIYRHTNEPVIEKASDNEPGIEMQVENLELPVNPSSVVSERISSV
Description: Inhibition of binding towards 5-hydroxytryptamine 2C receptor at 100 nM concentration.

Data set [15] addresses 5-hydroxytryptamine receptor 6 (Homo sapiens) (UniProt P50406). The data set can be described thus: Inhibition of binding towards 5-hydroxytryptamine 6 receptor at 100 nM concentration.
The test system of data set [16] is Rattus norvegicus. Description: Area under curve was determined after peroral administration in rat. The data set is classed as ADME, organism-based. The settings on record: in vivo, po.
Data set [17] concerns the target Adrenergic receptor alpha-1 (Homo sapiens) (UniProt P35348+P25100+P35368). Description: Inhibition of binding towards Alpha-1 adrenergic receptor at 100 nM concentration. The data set is classed as protein assay.
In data set [18] the target is D(3) dopamine receptor (Homo sapiens) (UniProt P35462). Description: Inhibition of binding towards dopamine 3 receptor at 100 nM concentration.
Sequence of D(3) dopamine receptor (Homo sapiens) (P35462 whole entry): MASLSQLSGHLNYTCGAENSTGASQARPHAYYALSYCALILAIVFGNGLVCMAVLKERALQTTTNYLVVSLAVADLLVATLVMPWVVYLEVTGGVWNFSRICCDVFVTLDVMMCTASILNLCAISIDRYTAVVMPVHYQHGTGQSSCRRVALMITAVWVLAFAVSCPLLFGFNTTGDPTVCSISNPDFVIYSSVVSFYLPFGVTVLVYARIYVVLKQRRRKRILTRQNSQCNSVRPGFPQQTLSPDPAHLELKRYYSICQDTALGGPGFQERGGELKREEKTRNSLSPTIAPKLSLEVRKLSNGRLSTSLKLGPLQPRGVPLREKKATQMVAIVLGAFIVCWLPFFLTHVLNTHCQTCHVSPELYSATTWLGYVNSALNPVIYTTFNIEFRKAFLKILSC
Data set [19] addresses T4, D(4) dopamine receptor (Homo sapiens) (UniProt P21917).
T4 sequence (whole entry): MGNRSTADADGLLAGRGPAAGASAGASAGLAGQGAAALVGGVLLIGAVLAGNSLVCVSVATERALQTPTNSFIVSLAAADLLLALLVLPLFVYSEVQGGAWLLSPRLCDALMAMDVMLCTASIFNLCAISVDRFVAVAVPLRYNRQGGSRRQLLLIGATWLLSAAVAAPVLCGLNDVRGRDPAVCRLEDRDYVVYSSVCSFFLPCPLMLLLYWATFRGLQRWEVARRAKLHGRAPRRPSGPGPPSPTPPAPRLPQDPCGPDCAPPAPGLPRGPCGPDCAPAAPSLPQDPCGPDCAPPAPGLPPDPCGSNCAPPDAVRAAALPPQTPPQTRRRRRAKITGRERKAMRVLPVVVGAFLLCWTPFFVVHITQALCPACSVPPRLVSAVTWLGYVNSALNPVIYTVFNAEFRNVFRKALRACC
Description: Inhibition of binding towards dopamine 4 receptor at 100 nM concentration.

The target in data set [20] is D(1A) dopamine receptor (Homo sapiens) (UniProt P21728). Description: Inhibition of binding towards dopamine 1 receptor at 100 nM concentration.
Sequence of D(1A) dopamine receptor (Homo sapiens) (P21728 whole entry): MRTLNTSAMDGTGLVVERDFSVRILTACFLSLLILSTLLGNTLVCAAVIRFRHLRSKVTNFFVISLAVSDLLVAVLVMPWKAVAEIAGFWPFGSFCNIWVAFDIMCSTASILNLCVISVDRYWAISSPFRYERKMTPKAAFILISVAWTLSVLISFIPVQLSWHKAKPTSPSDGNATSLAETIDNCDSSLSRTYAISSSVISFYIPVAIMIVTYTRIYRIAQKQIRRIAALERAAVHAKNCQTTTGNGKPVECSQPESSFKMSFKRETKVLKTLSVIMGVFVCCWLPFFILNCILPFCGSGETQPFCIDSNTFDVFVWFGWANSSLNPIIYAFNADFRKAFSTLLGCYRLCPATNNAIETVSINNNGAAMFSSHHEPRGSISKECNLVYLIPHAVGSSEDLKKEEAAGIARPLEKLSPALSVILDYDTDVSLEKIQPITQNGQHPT
In data set [21] the target is D(2) dopamine receptor (Homo sapiens) (UniProt P14416). Description: Inhibition of binding towards dopamine 2 receptor at 100 nM concentration.
Sequence of D(2) dopamine receptor (Homo sapiens) (P14416 whole entry): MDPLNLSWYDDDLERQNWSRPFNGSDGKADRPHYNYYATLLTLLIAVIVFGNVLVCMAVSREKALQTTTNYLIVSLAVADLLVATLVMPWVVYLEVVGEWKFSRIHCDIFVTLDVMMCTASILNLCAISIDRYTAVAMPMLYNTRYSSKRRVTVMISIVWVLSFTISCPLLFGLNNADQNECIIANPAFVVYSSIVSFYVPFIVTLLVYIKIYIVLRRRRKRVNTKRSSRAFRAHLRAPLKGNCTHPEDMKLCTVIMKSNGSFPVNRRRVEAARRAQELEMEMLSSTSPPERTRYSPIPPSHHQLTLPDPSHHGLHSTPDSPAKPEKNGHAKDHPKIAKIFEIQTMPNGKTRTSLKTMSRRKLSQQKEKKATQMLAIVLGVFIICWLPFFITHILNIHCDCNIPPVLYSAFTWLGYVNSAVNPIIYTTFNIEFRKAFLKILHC
Data set [22] addresses D(1B) dopamine receptor (Homo sapiens) (UniProt P21918). Description: Inhibition of binding towards dopamine 5 receptor at 100 nM concentration.
For the next data set, the species on record is Homo sapiens. Description: In vitro metabolic stability of compound after 30 min incubation in the presence of human liver microsomes. The data set is classed as functional. (Microsomes from liver hold many membrane-bound enzymes, among them those of drug oxidation.)
Data set [23] concerns the target Muscarinic acetylcholine receptors; M1 & M2 (Homo sapiens) (UniProt P11229+P08172). Description: Inhibition of binding towards muscarinic (M1+M2) receptor at 100 nM concentration. It is filed as protein assay.
For data set [24], the species on record is Rattus norvegicus. Description: In vitro metabolic stability of compound after 30 min incubation in the presence of rat liver microsomes. It is filed as functional.
Data set [25] in a line: Half period in rat after intravenous administration. The data set is classed as ADME, organism-based. Particulars: in vivo.

Each structure is given as a SMILES string.

T1 sequence (P28221 whole entry): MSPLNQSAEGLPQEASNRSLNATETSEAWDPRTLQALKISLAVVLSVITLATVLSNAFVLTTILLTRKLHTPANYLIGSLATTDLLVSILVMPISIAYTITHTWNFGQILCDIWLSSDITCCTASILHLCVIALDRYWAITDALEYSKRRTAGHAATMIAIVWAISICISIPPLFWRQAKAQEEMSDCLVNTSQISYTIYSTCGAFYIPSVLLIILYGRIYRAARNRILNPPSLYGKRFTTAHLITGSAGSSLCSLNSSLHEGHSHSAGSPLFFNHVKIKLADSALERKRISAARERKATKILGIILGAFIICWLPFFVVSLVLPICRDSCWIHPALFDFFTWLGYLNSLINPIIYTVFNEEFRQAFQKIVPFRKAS
Sequence of 5-hydroxytryptamine receptor 6 (Homo sapiens) (P50406 whole entry): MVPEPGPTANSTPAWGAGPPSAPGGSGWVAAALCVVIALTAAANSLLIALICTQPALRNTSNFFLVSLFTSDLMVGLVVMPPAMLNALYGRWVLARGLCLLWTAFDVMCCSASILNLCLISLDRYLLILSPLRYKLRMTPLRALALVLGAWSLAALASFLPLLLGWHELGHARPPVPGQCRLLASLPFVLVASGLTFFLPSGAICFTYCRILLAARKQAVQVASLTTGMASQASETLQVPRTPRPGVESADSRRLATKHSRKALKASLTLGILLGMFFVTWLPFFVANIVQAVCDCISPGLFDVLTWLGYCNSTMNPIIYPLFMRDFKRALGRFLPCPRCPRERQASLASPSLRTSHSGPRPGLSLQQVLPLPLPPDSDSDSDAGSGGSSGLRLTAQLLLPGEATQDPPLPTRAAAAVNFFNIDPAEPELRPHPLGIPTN
Sequence of D(1B) dopamine receptor (Homo sapiens) (P21918 whole entry): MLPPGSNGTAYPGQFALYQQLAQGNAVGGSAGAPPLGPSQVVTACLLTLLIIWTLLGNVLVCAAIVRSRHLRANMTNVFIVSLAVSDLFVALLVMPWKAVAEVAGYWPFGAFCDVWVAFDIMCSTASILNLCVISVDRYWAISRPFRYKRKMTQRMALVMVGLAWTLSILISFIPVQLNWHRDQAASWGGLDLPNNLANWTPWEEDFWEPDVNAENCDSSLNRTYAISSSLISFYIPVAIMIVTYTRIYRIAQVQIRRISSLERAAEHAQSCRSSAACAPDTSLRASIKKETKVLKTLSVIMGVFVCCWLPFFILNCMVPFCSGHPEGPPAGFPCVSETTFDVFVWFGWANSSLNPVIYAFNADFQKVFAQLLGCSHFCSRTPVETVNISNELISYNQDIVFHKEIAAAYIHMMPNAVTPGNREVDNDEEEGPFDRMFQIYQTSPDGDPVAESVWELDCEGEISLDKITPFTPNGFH

In turn, `CN(C)CCn1ccc2ccc(C3CCSCC3)cc21` displayed an inhibition in data set [1] of 99%. In addition, the affinity in data set [2] corresponds to a Ki of 5.6 nM. In addition, the Selectivity in data set [3] came out at 48.
In [2], `OC[C@H](NC1CCN(CCCc2c[nH]c3ccc(-n4cnnc4)cc23)CC1)c1ccc(F)cc1` came in with a Ki of 0.9 nM.
On to `CN(C)CCn1ccc2ccc(N3CCSCC3)cc21`, for which the inhibition in data set [1] worked out at 88%.
With `CN(C)CCn1ccc2ccc(C3(O)CCOCC3)cc21`, the Ki in [2] is 3.4 nM. Besides, the Selectivity in data set [3] was 48.
In turn, `CN(C)CCn1ccc2ccc(N3CCOCC3)cc21` showed an inhibition in data set [1] of 85%.
For `CN(C)CCn1ccc2ccc(C3=CCN(C)CC3)cc21`, in data set [1], the inhibition was 84%.
On to `CN(C)CCn1ccc2ccc(-c3cccnc3)cc21`, for which the inhibition in data set [1] was determined as 98%. The same compound returned a Ki in data set [2] of 1.4 nM. In data set [3], the Selectivity is 17.
For the compound `CNC(=O)c1ccc2c(c1)CCO[C@H]2CCN1CCN(c2ccc(C(N)=O)cc2)CC1`, the affinity in [2] corresponds to a Ki of 4.6 nM.
Turning to `CN(C)CCn1ccc2ccc(-c3ccc(C(F)(F)F)cc3)cc21`, in data set [1], the inhibition stood at 86%.
`CN(C)CCn1ccc2ccc(C3=CCSCC3)cc21` gave an inhibition in data set [1] of 95%. Also, the affinity in data set [2] corresponds to a Ki of 22 nM. This compound also displayed a Selectivity in data set [3] of 7.4.
Take `CN(C)CCn1ccc2ccc(C3=CCOCC3)cc21`: in data set [2], the Ki was found to be 32 nM. In [3], this compound had a Selectivity of 28.
Take `CN(C)CCn1ccc2ccc(C3CCOCC3)cc21`: the Ki in data set [2] was 3.7 nM.
As to `CN(C)CCn1ccc2ccc(C3CCN(C)CC3)cc21`, the inhibition in data set [1] was 74%.
In data set [1], `CN(C)CCn1ccc2ccc(-c3ccc4ccccc4c3)cc21` gave an inhibition of 79%. In [2], this compound had a Ki of 57 nM. Further, the Selectivity in data set [3] was 5.5.
Compound `CN(C)CCn1ccc2ccc(C3(O)CCN(C)CC3)cc21` showed an inhibition in data set [1] of 44%.
For the compound `CN(C)CCn1ccc2ccc(-c3ccsc3)cc21`, in data set [1], the inhibition was 99%. In data set [2], this compound came in with a Ki of 7.3 nM. Also, the Selectivity in [3] was found to be 22.
Consider `CN(C)CCn1ccc2ccc(C3(O)CCSCC3)cc21`, for which the inhibition in data set [4] is 27%; in [6], 46%; in data set [1] it was 99%; in [7], 0%; in data set [8], 96%; in data set [11], 5%. Moreover, the inhibition worked out at 4% in data set [14]; 0% in data set [15]; 1% in data set [17]; 0% in data set [18]; 2% in data set [19]; 0% in data set [20]. Further, the inhibition came to 0% in data set [21], 1% in [22] and 0% in data set [23]. In [5], this compound had an EC50 of 0.3 nM. The compound also returned a Ki in data set [2] of 2 nM. Also, the Vd in [9] amounted to 8.61 L/kg. In data set [10], this compound registered a clearance of 74 mL/min/kg. For the same compound, in data set [12], the Cmax came out at 538 ng/mL. The compound further showed a bioavailability in [13] of 51.1%. The AUC with Rattus norvegicus [16] came out at 21265 ng·mL/kg. In addition, the figures for the Remaining in the data set filed under Homo sapiens and in the data set listed under Rattus norvegicus [24] were 70% and 79%, respectively. For the same compound, in [3], the Selectivity was 57. Besides, the half-life in [25] is 1.5 h.
